Measured values: patent US20230087994A1, “TARGETED BIFUNCTIONAL DEGRADERS” (YALE UNIVERSITY, priority 2019, published 2023)
Square brackets hold non-standard residues; d marks the D form. Peptide text beside a SMILES is read from it. * marks the point of attachment. Sta = CC(C)C[C@H](N)[C@@H](O)CC(=O)O; Isovaleryl = CC(C)CC(=O)*; Nle = CCCC[C@H](N)C(=O)O

Tests used:
HepG2 cells [1] = assay: Degradation of α-DNP antibody endocytosed via DNP-AF3 in HepG2 cells (PAGE, 50 kDa/25 kDa band ratio) and effect of protease inhibitors; type: cell-based, human; conditions: for inhibition of α-DNP antibody degradation, triplicate: 12 hours, FIG. 117; for toxicity to cells: pepstatin 5 μM after 24 hours, AEBSF 100 μM, ALLN 100 μM by 24 hours; for inhibition of degradation of α-DNP antibody, repeat with selected conditions: 80 μM leupeptin, 10 and 100 μM ALLN, 15 μM pepstatin, FIG. 118, leupeptin not significant (p=0.0504)
Text: First, reducing conditions were used to visualize antibody degradation via PAGE gel.

HepG2 cells [2] = assay: DNP-GN3-mediated endocytosis of fluorescently labeled α-DNP antibody by adherent HepG2 cells; type: cell-based, human; conditions: DNP-GN3-mediated uptake; FIG. 89
Procedure: It was next explored whether DNP-GN3 mediates the endocytosis of fluorescently labeled α-DNP antibody.
To explore the cellular mechanism of antibody uptake, cells were treated with chemical inhibitors of several endocytic pathways (FIG. 89).

HepG2 cells [3] = assay: MIF-GN3-mediated endocytosis of fluorescently labeled human MIF by HepG2 cells; conditions: 100 nM MIF, 200 nM MIF-GN3; FIG. 132
Procedure: Human MIF protein was fluorescently labeled with Alexa 488 NHS ester, then incubated with HepG2 cells in the presence of varying levels of MIF-GN3.
Next, inhibitors of various endocytic pathways were utilized to determine if MIF-GN3 mediates MIF endocytosis in a manner consistent with ASGPR (FIG. 132).

human MIF = molecular target: T1, human MIF (Homo sapiens, UniProt P14174); assay: Depletion of human MIF from cell culture supernatant (sandwich ELISA); type: cell-based; set-up: host or cells: exogenous protein added to cell culture; conditions: for depletion of MIF from cell culture supernatant / depletion of human MIF from cell culture supernatant: human MIF 100 nM; for depletion of MIF from cell culture supernatant: MIF-AF2 at 40 nM, 200 nM, and 1 μM, FIG. 129; for depletion of human MIF from cell culture supernatant: FIG. 128A
T1 sequence (P14174 2-115 limits assumed): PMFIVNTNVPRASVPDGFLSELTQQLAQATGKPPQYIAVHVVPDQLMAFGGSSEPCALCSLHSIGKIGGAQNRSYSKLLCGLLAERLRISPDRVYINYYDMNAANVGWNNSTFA
Procedure: The ability of bifunctional MIF-binding molecules to mediate the depletion of human MIF from cell culture was investigated. In these assays, human MIF was present at a concentration of 100 nM, and a sandwich ELISA assay was utilized to measure the concentration of human MIF remaining in the cell culture supernatant. The closely related bifunctional molecules MIF-GN3, MIF-PEG2-GN3, and MIF-PEG4-GN3 were used, as well as the structurally dissimilar molecule MIF-NVS-PEG3-GN3. […] Based on the ease of its synthesis and its efficacy in this experiment, MIF-GN3 was utilized for further studies. It was next investigated whether the MIF inhibitor 3w mediates MIF depletion from cell culture supernatant. […] When cells were treated with 3w, no depletion of exogenous MIF protein was observed after 24 hours (FIG. 128B).

[4] = single replicate, FIG. 116, leupeptin 20 and 80, E64 50 and 10 μM, antipain 50 and 100 μM, aprotinin 400 or 800 nM, PMSF 100 or 500 μM, AEBSF 10 μM, ALLN 10 μM

Cl.NCCc1ccc(S(=O)(=O)F)cc1 [AEBSF, 4-(2-aminoethyl)benzeneulfonyl fluoride hydrochloride]
inhibition of α-DNP antibody degradation, triplicate (HepG2 cells [1]): did not significantly inhibit
toxicity to cells (HepG2 cells [1]): toxic to cells
inhibition of α-DNP antibody degradation, initial screen (HepG2 cells [1]; [4]): not effective

CCCC[C@@H](C=O)NC(=O)[C@H](CC(C)C)NC(=O)[C@H](CC(C)C)NC(C)=O [ALLN] (Ac-Leu-Leu-[Nle]-aldehyde)
inhibition of α-DNP antibody degradation, initial screen (HepG2 cells [1]; 100 μM, 12 hour time point): strong inhibition
inhibition of α-DNP antibody degradation, triplicate (HepG2 cells [1]): appeared effective
inhibition of α-DNP antibody degradation, initial screen (HepG2 cells [1]; [4]): not active

CC(C)C[C@H](NC(=O)[C@@H](O)[C@H](N)Cc1ccccc1)C(=O)O [Bestatin]
inhibition of α-DNP antibody degradation, triplicate (HepG2 cells [1]): did not significantly inhibit
inhibition of α-DNP antibody degradation, initial screen (HepG2 cells [1]; [4]): not effective

CC(C)C[C@H](NC(=O)[C@H]1O[C@@H]1C(=O)O)C(=O)NCCCCN=C(N)N [Compound E64, E64]
inhibition of degradation of α-DNP antibody, repeat with selected conditions (HepG2 cells [1]): inhibited degradation
inhibition of α-DNP antibody degradation, triplicate (HepG2 cells [1]): inhibit α-DNP antibody degradation at all concentrations tested
inhibition of α-DNP antibody degradation, initial screen (HepG2 cells [1]; [4]): effective

CCN(c1nc(N)c(C(=O)NC(=N)N)nc1Cl)C(C)C [EIPA]
effect of endocytic pathway inhibitors on intracellular fluorescence (HepG2 cells [2]): did not significantly decrease
effect of endocytic pathway inhibitors on MIF-GN3-mediated MIF endocytosis (HepG2 cells [3]): significantly inhibited uptake

O=C(CCCOc1ccc2nc(-c3cn(-c4ccc(O)c(F)c4)nn3)ccc2c1)NCCOCCC(=O)NCCOCCOCCOCCOC[C@]12CO[C@H](O1)[C@H](NC(=O)C(F)(F)F)[C@@H](O)[C@H]2O [MIF-AF1]
depletion of MIF from cell culture supernatant (human MIF): not effective

O=C(CCOCC(COCCC(=O)NCCOCCOCCOCCOC[C@]12CO[C@H](O1)[C@H](NC(=O)C(F)(F)F)[C@@H](O)[C@H]2O)NC(=O)CCCOc1ccc2nc(-c3cn(-c4ccc(O)c(F)c4)nn3)ccc2c1)NCCOCCOCCOCCOC[C@]12CO[C@H](O1)[C@H](NC(=O)C(F)(F)F)[C@@H](O)[C@H]2O [MIF-AF2]
depletion of MIF from the cell culture supernatant (human MIF; 200 nM or 1 (μM), after 48 hours): ~100%
depletion of MIF from cell culture supernatant (human MIF): effective at depleting MIF

O=C(CCOCC(COCCC(=O)NCCOCCOCCOCCOC[C@]12CO[C@H](O1)[C@H](NC(=O)C(F)(F)F)[C@@H](O)[C@H]2O)(COCCC(=O)NCCOCCOCCOCCOC[C@]12CO[C@H](O1)[C@H](NC(=O)C(F)(F)F)[C@@H](O)[C@H]2O)NC(=O)CCCOc1ccc2nc(-c3cn(-c4ccc(O)c(F)c4)nn3)ccc2c1)NCCOCCOCCOCCOC[C@]12CO[C@H](O1)[C@H](NC(=O)C(F)(F)F)[C@@H](O)[C@H]2O [MIF-AF3]
molar equivalents of MIF protein depleted (human MIF; 40 nM): 2.08 molar equivalents
human MIF protein removed (human MIF; 40 nM (4.0 pmol of molecule)): 8.32 pmol
removal of MIF present in the cell culture supernatant (human MIF; 40 nM (4.0 pmol of molecule)): 83.2%

CC(=O)NC1C(OCCOCCOCCNC(=O)CCOCC(COCCC(=O)NCCOCCOCCOC2OC(CO)C(O)C(O)C2NC(C)=O)(COCCC(=O)NCCOCCOCCOC2OC(CO)C(O)C(O)C2NC(C)=O)NC(=O)CNC(=O)COCCOCCOCCn2cc(COCCOCCOc3ccc(N4Cc5ccc(O)cc5OC4=O)cc3)nn2)OC(CO)C(O)C1O (centres unmarked) [MIF-NVS-PEG3-GN3]
depletion of human MIF from cell culture supernatant (human MIF; 24 hours): effective at mediating the depletion of human MIF

CC(=O)NC1C(OCCOCCOCCNC(=O)CCOCC(COCCC(=O)NCCOCCOCCOC2OC(CO)C(O)C(O)C2NC(C)=O)(COCCC(=O)NCCOCCOCCOC2OC(CO)C(O)C(O)C2NC(C)=O)NC(=O)CNC(=O)COCCOCCNC(=O)CCCOc2ccc3nc(-c4cn(-c5ccc(O)c(F)c5)nn4)ccc3c2)OC(CO)C(O)C1O (centres unmarked) [MIF-PEG2-GN3]
depletion of exogenous MIF protein from supernatant (human MIF; 24 hours, FIG. 128B): mediated MIF depletion across a range of concentrations
depletion of human MIF from cell culture supernatant (human MIF; 24 hours): effective at mediating the depletion of human MIF

CC(=O)NC1C(OCCOCCOCCNC(=O)CCOCC(COCCC(=O)NCCOCCOCCOC2OC(CO)C(O)C(O)C2NC(C)=O)(COCCC(=O)NCCOCCOCCOC2OC(CO)C(O)C(O)C2NC(C)=O)NC(=O)CNC(=O)COCCOCCOCCOCCNC(=O)CCCOc2ccc3nc(-c4cn(-c5ccc(O)c(F)c5)nn4)ccc3c2)OC(CO)C(O)C1O (centres unmarked) [MIF-PEG4-GN3]
depletion of human MIF from cell culture supernatant (human MIF; 24 hours): effective at mediating the depletion of human MIF

O=S(=O)(F)Cc1ccccc1 [PMSF, Phenylmethylsulfonyl fluoride]
inhibition of α-DNP antibody degradation, triplicate (HepG2 cells [1]): did not significantly inhibit
inhibition of α-DNP antibody degradation, initial screen (HepG2 cells [1]; [4]): not effective

CC(C)CC(=O)N[C@H](C(=O)N[C@H](C(=O)N[C@@H](CC(C)C)[C@@H](O)CC(=O)N[C@@H](C)C(=O)N[C@@H](CC(C)C)[C@@H](O)CC(=O)O)C(C)C)C(C)C [Pepstatin] (Isovaleryl-VV[Sta]A[Sta]-OH)
inhibition of degradation of α-DNP antibody, repeat with selected conditions (HepG2 cells [1]): did not
inhibition of α-DNP antibody degradation, triplicate (HepG2 cells [1]): did not significantly inhibit
toxicity to cells (HepG2 cells [1]): toxic to cells
inhibition of α-DNP antibody degradation, initial screen (HepG2 cells [1]; [4]): not effective

Cl.N [ammonium chloride]
effect of endocytic pathway inhibitors on MIF-GN3-mediated MIF endocytosis (HepG2 cells [3]): near background levels

CO/C1=C\C(C)=C\[C@@H](C)[C@@H](O)[C@@H](C)C/C(C)=C/C=C/[C@H](OC)[C@@H]([C@@H](C)[C@@H](O)[C@H](C)[C@@]2(O)C[C@@H](O)[C@H](C)[C@@H](C(C)C)O2)OC1=O [bafilomycin, Bafilomycin]
effect of endocytic pathway inhibitors on intracellular fluorescence (HepG2 cells [2]): significantly decreased
effect of endocytic pathway inhibitors on MIF-GN3-mediated MIF endocytosis (HepG2 cells [3]): near background levels

CCN(CC)CCCC(C)Nc1ccnc2cc(Cl)ccc12 (centres unmarked) [chloroquine, Chloroquine]
effect of endocytic pathway inhibitors on intracellular fluorescence (HepG2 cells [2]): significantly decreased
effect of endocytic pathway inhibitors on MIF-GN3-mediated MIF endocytosis (HepG2 cells [3]): near background levels

C=C1[C@@H](C)[C@H]2[C@H](Cc3ccccc3)NC(=O)[C@]23[C@H](OC(C)=O)/C=C/[C@@](C)(O)C(=O)[C@@H](C)C/C=C/[C@H]3[C@@H]1O [cytochalasin D]
effect of endocytic pathway inhibitors on intracellular fluorescence (HepG2 cells [2]): did not significantly decrease

CC(=O)N[C@@H](CC(C)C)C(=O)N[C@@H](CC(C)C)C(=O)N[C@H](C=O)CCCNC(=N)N [leupeptin, Leupeptin]
inhibition of degradation of α-DNP antibody, repeat with selected conditions (HepG2 cells [1]): inhibited degradation
inhibition of α-DNP antibody degradation, triplicate (HepG2 cells [1]): inhibit α-DNP antibody degradation at all concentrations tested
inhibition of α-DNP antibody degradation, initial screen (HepG2 cells [1]; [4]): effective

CC[C@@]1([C@@H]2O[C@@H]([C@H]3O[C@@](O)(CO)[C@H](C)C[C@@H]3C)C[C@@H]2C)CC[C@H]([C@]2(C)CC[C@]3(C[C@H](O)[C@@H](C)[C@@H]([C@@H](C)[C@@H](OC)[C@H](C)C(=O)O)O3)O2)O1 [monensin, Monensin]
effect of endocytic pathway inhibitors on intracellular fluorescence (HepG2 cells [2]): significantly decreased
effect of endocytic pathway inhibitors on MIF-GN3-mediated MIF endocytosis (HepG2 cells [3]): near background levels

OC[C@H]1O[C@@](CO)(O[C@H]2O[C@H](CO)[C@@H](O)[C@H](O)[C@H]2O)[C@@H](O)[C@@H]1O [sucrose]
effect of endocytic pathway inhibitors on intracellular fluorescence (HepG2 cells [2]): significantly decreased
effect of endocytic pathway inhibitors on MIF-GN3-mediated MIF endocytosis (HepG2 cells [3]): near background levels

Aprotinin
inhibition of α-DNP antibody degradation, triplicate (HepG2 cells [1]): did not significantly inhibit
inhibition of α-DNP antibody degradation, initial screen (HepG2 cells [1]; [4]): not effective
